According to BigSolDB 2.1:

With `c1ccc2c(c1)sc1ccccc12` as the molecule, how does the solubility (mole fraction) (in 2-(2-butoxyethoxy)ethanol, 282.75 K) read?
Its solubility (mole fraction) is 0.063.

What about the solubility (mole fraction) (in 2-(2-butoxyethoxy)ethanol, 285.85 K) of the same molecule?
Its solubility (mole fraction) is 0.0695.

What about the solubility (mole fraction) (in 2-(2-butoxyethoxy)ethanol, 291.65 K) of the same molecule?
The solubility (mole fraction) was 0.0873.

What about the solubility (mole fraction) (in 2-(2-butoxyethoxy)ethanol, 298.95 K) of the same molecule?
The solubility (mole fraction) was 0.105.

And the solubility (mole fraction) (in 2-(2-butoxyethoxy)ethanol, 304.35 K)?
The solubility (mole fraction) was 0.123.

What about the solubility (mole fraction) (in 2-(2-butoxyethoxy)ethanol, 309.85 K) of the same molecule?
Its solubility (mole fraction) is 0.144.

What about the solubility (mole fraction) (in 2-(2-butoxyethoxy)ethanol, 316.05 K) of the same molecule?
The solubility (mole fraction) was 0.167.

What about the solubility (mole fraction) (in 2-(2-butoxyethoxy)ethanol, 320.95 K) of the same molecule?
Its solubility (mole fraction) is 0.192.

And the solubility (mole fraction) (in 2-(2-butoxyethoxy)ethanol, 324.35 K)?
Its solubility (mole fraction) is 0.217.

And the solubility (mole fraction) (in 2-(2-butoxyethoxy)ethanol, 328.95 K)?
Its solubility (mole fraction) is 0.245.

What about the solubility (mole fraction) (in 2-(2-butoxyethoxy)ethanol, 333.15 K) of the same molecule?
The solubility (mole fraction) was 0.28.

And the solubility (mole fraction) (in DMF, 289.45 K)?
The solubility (mole fraction) was 0.113.

And the solubility (mole fraction) (in DMF, 294.25 K)?
Its solubility (mole fraction) is 0.131.

And the solubility (mole fraction) (in DMF, 298.65 K)?
The solubility (mole fraction) was 0.147.

What about the solubility (mole fraction) (in DMF, 302.65 K) of the same molecule?
Its solubility (mole fraction) is 0.165.

And the solubility (mole fraction) (in DMF, 306.55 K)?
The solubility (mole fraction) was 0.184.

What about the solubility (mole fraction) (in DMF, 310.15 K) of the same molecule?
Its solubility (mole fraction) is 0.206.

And the solubility (mole fraction) (in DMF, 314.35 K)?
Its solubility (mole fraction) is 0.231.

What about the solubility (mole fraction) (in DMF, 318.35 K) of the same molecule?
Its solubility (mole fraction) is 0.257.

And the solubility (mole fraction) (in DMF, 322.35 K)?
The solubility (mole fraction) was 0.285.

What about the solubility (mole fraction) (in DMF, 325.55 K) of the same molecule?
Its solubility (mole fraction) is 0.313.

And the solubility (mole fraction) (in DMF, 329.25 K)?
Its solubility (mole fraction) is 0.344.

What about the solubility (mole fraction) (in DMSO, 292.95 K) of the same molecule?
The solubility (mole fraction) was 0.0567.

What about the solubility (mole fraction) (in DMSO, 296.45 K) of the same molecule?
The solubility (mole fraction) was 0.0668.

And the solubility (mole fraction) (in DMSO, 301.25 K)?
The solubility (mole fraction) was 0.0791.

What about the solubility (mole fraction) (in DMSO, 306.15 K) of the same molecule?
The solubility (mole fraction) was 0.0925.

And the solubility (mole fraction) (in DMSO, 310.15 K)?
Its solubility (mole fraction) is 0.108.

And the solubility (mole fraction) (in DMSO, 314.85 K)?
The solubility (mole fraction) was 0.127.

What about the solubility (mole fraction) (in DMSO, 318.05 K) of the same molecule?
Its solubility (mole fraction) is 0.15.

What about the solubility (mole fraction) (in DMSO, 322.95 K) of the same molecule?
The solubility (mole fraction) was 0.177.

And the solubility (mole fraction) (in DMSO, 325.45 K)?
The solubility (mole fraction) was 0.201.

What about the solubility (mole fraction) (in DMSO, 330.15 K) of the same molecule?
Its solubility (mole fraction) is 0.234.

And the solubility (mole fraction) (in DMSO, 333.25 K)?
The solubility (mole fraction) was 0.264.

What about the solubility (mole fraction) (in acetone, 300.15 K) of the same molecule?
The solubility (mole fraction) was 0.0769.

What about the solubility (mole fraction) (in acetone, 301.15 K) of the same molecule?
The solubility (mole fraction) was 0.0792.

And the solubility (mole fraction) (in acetone, 303.15 K)?
Its solubility (mole fraction) is 0.0884.

What about the solubility (mole fraction) (in acetone, 308.15 K) of the same molecule?
Its solubility (mole fraction) is 0.107.

What about the solubility (mole fraction) (in acetone, 311.25 K) of the same molecule?
Its solubility (mole fraction) is 0.12.

What about the solubility (mole fraction) (in acetone, 314.65 K) of the same molecule?
The solubility (mole fraction) was 0.136.

What about the solubility (mole fraction) (in acetone, 317.95 K) of the same molecule?
The solubility (mole fraction) was 0.156.

And the solubility (mole fraction) (in acetone, 321.65 K)?
Its solubility (mole fraction) is 0.179.

What about the solubility (mole fraction) (in acetone, 326.25 K) of the same molecule?
Its solubility (mole fraction) is 0.217.

And the solubility (mole fraction) (in acetone, 330.95 K)?
The solubility (mole fraction) was 0.261.

And the solubility (mole fraction) (in acetone, 336.25 K)?
Its solubility (mole fraction) is 0.319.

What about the solubility (mole fraction) (in acetone, 341.15 K) of the same molecule?
The solubility (mole fraction) was 0.372.

And the solubility (mole fraction) (in acetonitrile, 289.35 K)?
Its solubility (mole fraction) is 0.0103.

What about the solubility (mole fraction) (in acetonitrile, 290.45 K) of the same molecule?
The solubility (mole fraction) was 0.0107.

And the solubility (mole fraction) (in acetonitrile, 293.25 K)?
Its solubility (mole fraction) is 0.0121.

What about the solubility (mole fraction) (in acetonitrile, 297.35 K) of the same molecule?
Its solubility (mole fraction) is 0.0143.

And the solubility (mole fraction) (in acetonitrile, 302.15 K)?
The solubility (mole fraction) was 0.0175.

And the solubility (mole fraction) (in acetonitrile, 304.55 K)?
The solubility (mole fraction) was 0.0199.

And the solubility (mole fraction) (in acetonitrile, 309.25 K)?
Its solubility (mole fraction) is 0.0244.

What about the solubility (mole fraction) (in decalin, 294.15 K) of the same molecule?
Its solubility (mole fraction) is 0.0408.

And the solubility (mole fraction) (in decalin, 296.15 K)?
The solubility (mole fraction) was 0.042.

What about the solubility (mole fraction) (in decalin, 298.15 K) of the same molecule?
The solubility (mole fraction) was 0.0445.

And the solubility (mole fraction) (in decalin, 302.15 K)?
The solubility (mole fraction) was 0.049.

What about the solubility (mole fraction) (in decalin, 304.15 K) of the same molecule?
The solubility (mole fraction) was 0.0516.

And the solubility (mole fraction) (in decalin, 308.15 K)?
Its solubility (mole fraction) is 0.0571.

And the solubility (mole fraction) (in decalin, 317.15 K)?
Its solubility (mole fraction) is 0.0706.

What about the solubility (mole fraction) (in decalin, 325.15 K) of the same molecule?
Its solubility (mole fraction) is 0.0891.

What about the solubility (mole fraction) (in decalin, 331.15 K) of the same molecule?
The solubility (mole fraction) was 0.101.

And the solubility (mole fraction) (in decalin, 337.15 K)?
Its solubility (mole fraction) is 0.107.

What about the solubility (mole fraction) (in diethylene glycol, 287.85 K) of the same molecule?
Its solubility (mole fraction) is 0.00027.

What about the solubility (mole fraction) (in diethylene glycol, 299.95 K) of the same molecule?
Its solubility (mole fraction) is 0.00062.

What about the solubility (mole fraction) (in diethylene glycol, 309.95 K) of the same molecule?
The solubility (mole fraction) was 0.00093.

What about the solubility (mole fraction) (in diethylene glycol, 314.15 K) of the same molecule?
Its solubility (mole fraction) is 0.00119.

And the solubility (mole fraction) (in diethylene glycol, 317.65 K)?
The solubility (mole fraction) was 0.00163.

And the solubility (mole fraction) (in diethylene glycol, 320.95 K)?
The solubility (mole fraction) was 0.0023.

And the solubility (mole fraction) (in diethylene glycol, 324.95 K)?
The solubility (mole fraction) was 0.00328.

What about the solubility (mole fraction) (in diethylene glycol, 326.85 K) of the same molecule?
The solubility (mole fraction) was 0.00443.

And the solubility (mole fraction) (in diethylene glycol, 328.15 K)?
The solubility (mole fraction) was 0.00619.

And the solubility (mole fraction) (in diethylene glycol, 330.15 K)?
The solubility (mole fraction) was 0.00951.

And the solubility (mole fraction) (in diethylene glycol, 332.35 K)?
Its solubility (mole fraction) is 0.0143.

What about the solubility (mole fraction) (in diethylene glycol, 334.15 K) of the same molecule?
The solubility (mole fraction) was 0.0203.

What about the solubility (mole fraction) (in ethanol, 294.55 K) of the same molecule?
The solubility (mole fraction) was 0.0062.

And the solubility (mole fraction) (in ethanol, 300.25 K)?
Its solubility (mole fraction) is 0.0074.

And the solubility (mole fraction) (in ethanol, 303.85 K)?
Its solubility (mole fraction) is 0.0082.

And the solubility (mole fraction) (in ethanol, 306.45 K)?
Its solubility (mole fraction) is 0.0092.

What about the solubility (mole fraction) (in ethanol, 310.25 K) of the same molecule?
Its solubility (mole fraction) is 0.0106.

What about the solubility (mole fraction) (in ethanol, 313.95 K) of the same molecule?
The solubility (mole fraction) was 0.0121.

And the solubility (mole fraction) (in ethanol, 318.95 K)?
The solubility (mole fraction) was 0.0141.

And the solubility (mole fraction) (in ethanol, 322.55 K)?
The solubility (mole fraction) was 0.0164.

What about the solubility (mole fraction) (in ethanol, 327.35 K) of the same molecule?
Its solubility (mole fraction) is 0.0197.

What about the solubility (mole fraction) (in ethanol, 331.15 K) of the same molecule?
The solubility (mole fraction) was 0.0239.

What about the solubility (mole fraction) (in n-octane, 292.05 K) of the same molecule?
The solubility (mole fraction) was 0.0232.

And the solubility (mole fraction) (in n-octane, 294.15 K)?
Its solubility (mole fraction) is 0.0244.

What about the solubility (mole fraction) (in n-octane, 297.15 K) of the same molecule?
The solubility (mole fraction) was 0.0277.

What about the solubility (mole fraction) (in n-octane, 300.05 K) of the same molecule?
Its solubility (mole fraction) is 0.0317.

What about the solubility (mole fraction) (in n-octane, 304.15 K) of the same molecule?
Its solubility (mole fraction) is 0.0373.

And the solubility (mole fraction) (in n-octane, 308.25 K)?
The solubility (mole fraction) was 0.0438.

And the solubility (mole fraction) (in n-octane, 314.15 K)?
The solubility (mole fraction) was 0.0521.

And the solubility (mole fraction) (in n-octane, 318.15 K)?
Its solubility (mole fraction) is 0.062.

What about the solubility (mole fraction) (in n-octane, 325.15 K) of the same molecule?
The solubility (mole fraction) was 0.0767.

What about the solubility (mole fraction) (in n-octane, 337.15 K) of the same molecule?
The solubility (mole fraction) was 0.0995.

And the solubility (mole fraction) (in n-propanol, 288.05 K)?
The solubility (mole fraction) was 0.0065.

What about the solubility (mole fraction) (in n-propanol, 295.95 K) of the same molecule?
The solubility (mole fraction) was 0.0083.

What about the solubility (mole fraction) (in n-propanol, 300.15 K) of the same molecule?
Its solubility (mole fraction) is 0.0099.

And the solubility (mole fraction) (in n-propanol, 303.85 K)?
The solubility (mole fraction) was 0.0118.

What about the solubility (mole fraction) (in n-propanol, 307.85 K) of the same molecule?
Its solubility (mole fraction) is 0.0143.

And the solubility (mole fraction) (in n-propanol, 314.65 K)?
Its solubility (mole fraction) is 0.0183.

What about the solubility (mole fraction) (in n-propanol, 320.65 K) of the same molecule?
Its solubility (mole fraction) is 0.0232.

What about the solubility (mole fraction) (in n-propanol, 324.05 K) of the same molecule?
The solubility (mole fraction) was 0.0292.

And the solubility (mole fraction) (in n-propanol, 328.95 K)?
The solubility (mole fraction) was 0.0363.

And the solubility (mole fraction) (in n-propanol, 332.25 K)?
The solubility (mole fraction) was 0.043.

What about the solubility (mole fraction) (in n-propanol, 336.05 K) of the same molecule?
The solubility (mole fraction) was 0.0486.

What about the solubility (mole fraction) (in sulfolane, 297.65 K) of the same molecule?
The solubility (mole fraction) was 0.0541.

And the solubility (mole fraction) (in sulfolane, 299.45 K)?
The solubility (mole fraction) was 0.0563.

And the solubility (mole fraction) (in sulfolane, 301.75 K)?
Its solubility (mole fraction) is 0.0609.

What about the solubility (mole fraction) (in sulfolane, 303.45 K) of the same molecule?
Its solubility (mole fraction) is 0.0712.

And the solubility (mole fraction) (in sulfolane, 309.15 K)?
Its solubility (mole fraction) is 0.0923.

And the solubility (mole fraction) (in sulfolane, 313.35 K)?
Its solubility (mole fraction) is 0.109.

What about the solubility (mole fraction) (in sulfolane, 317.05 K) of the same molecule?
The solubility (mole fraction) was 0.125.

What about the solubility (mole fraction) (in sulfolane, 321.05 K) of the same molecule?
Its solubility (mole fraction) is 0.144.

What about the solubility (mole fraction) (in sulfolane, 324.85 K) of the same molecule?
Its solubility (mole fraction) is 0.163.

What about the solubility (mole fraction) (in sulfolane, 327.75 K) of the same molecule?
The solubility (mole fraction) was 0.185.

And the solubility (mole fraction) (in sulfolane, 331.75 K)?
Its solubility (mole fraction) is 0.214.

What about the solubility (mole fraction) (in sulfolane, 334.75 K) of the same molecule?
Its solubility (mole fraction) is 0.242.

What about the solubility (mole fraction) (in sulfolane, 338.25 K) of the same molecule?
Its solubility (mole fraction) is 0.271.

And the solubility (mole fraction) (in sulfolane, 340.45 K)?
The solubility (mole fraction) was 0.294.
